Patent publication US20210114973A1, “PHARMACEUTICAL FORMULATIONS” (First Wave Bio, Inc., priority 2019, published 2021)

Legend:
[1] = cited from earlier work
[2] = Effect of particle size on colonic exposure levels: single rectal dose of niclosamide suspension, blood and rectal mucosa samples; conditions: rabbit; for plasma concentration of niclosamide (maximum measured): rectal administration, 1 hour (time point of maximum plasma concentration)
Description: These preparations of niclosamide were formulated into a suspension. Rabbits were treated with a single dose of these niclosamide suspensions at the dose levels specified. Following dosing, blood samples and rectal mucosa samples were obtained at indicated time points.

Row | Compound | solubility in acetone ([1]; acetone) | solubility in ether, ethanol and chloroform ([1]; ether, ethanol and chloroform) | water solubility ([1]; water, 20° C.) [mg/L] | concentration at 1 hour ([2]; colon tissue, other: rectal, 22.5 mg) [ng/mL] | plasma concentration of niclosamide (maximum measured) ([2]; 7.5 mg single dose) | plasma concentration of niclosamide (maximum measured) ([2]; 22.5 mg single dose)
1 | O=C(Nc1ccc([N+](=O)[O-])cc1Cl)c1cc(Cl)ccc1O [Niclosamide, 5-chloro-N-(2-chloro-4-nitrophenyl)-2-hydroxybenzamide] | soluble | sparingly soluble | 5 to 8 |  |  | 
2 | O=C(Nc1ccc([N+](=O)[O-])cc1Cl)c1cc(Cl)ccc1O [milled niclosamide, 5-chloro-N-(2-chloro-4-nitrophenyl)-2-hydroxybenzamide] |  |  |  | 6090 | 6.576 | 20.24
